In ChEMBL document CHEMBL5226317, “Camptothecin's journey from discovery to WHO Essential Medicine: Fifty years of promise” (Eur J Med Chem, 2021):
pEC50, pIC50: −log10 of the molar value. Where a name gives a salt, the structure may show the parent alone.

Key:
Assay type in all cases: functional, cell-based
[1] = system: HT-29; assay: Cytotoxicity against human HT-29 cells
[2] = system: A549; assay: Cytotoxicity against human A549 cells
[3] = system: KB; assay: Antiproliferative activity against human KB cells
[4] = Antiproliferative activity against human KB-VIN cells; conditions: KBVIN
[5] = system: MDA-MB-231; assay: Antiproliferative activity against human MDA-MB-231 cells
[6] = system: A549; assay: Antiproliferative activity against human A549 cells
[7] = system: MCF7; assay: Antiproliferative activity against human MCF7 cells
[8] = Antiproliferative activity against human KB-VIN cells assessed as reduction in cell viability; conditions: KBVIN
[9] = system: SGC-7901; assay: Antiproliferative activity against human SGC-7901 cells incubated for 48 hrs by CCK-8 assay; conditions: SGC-7901, 48 h
[10] = system: KB; assay: Antiproliferative activity against human KB cells incubated for 48 hrs by CCK-8 assay
[11] = system: HepG2; assay: Antiproliferative activity against human HepG2 cells incubated for 48 hrs by CCK-8 assay; conditions: HepG2, 48 h
[12] = system: HCT-8; assay: Antiproliferative activity against human HCT-8 cells incubated for 48 hrs by CCK-8 assay; conditions: HCT-8, 48 h
[13] = system: HCT-8; assay: Cytotoxicity against human HCT-8 cells
[14] = system: HT-29; assay: Anticancer activity against human HT-29 cells incubated for 48 hrs by MTT assay; conditions: HT-29, 48 h
[15] = system: A549; assay: Anticancer activity against human A549 cells incubated for 48 hrs by MTT assay; conditions: A549, 48 h
[16] = system: HepG2; assay: Anticancer activity against human HepG2 cells incubated for 48 hrs by MTT assay; conditions: HepG2, 48 h
[17] = system: H322; assay: Anticancer activity against human H322 cells incubated for 48 hrs by MTT assay; conditions: NCI-H322, 48 h
[18] = system: Jurkat; assay: Anticancer activity against human Jurkat cells incubated for 48 hrs by MTT assay
[19] = system: HCT-116; assay: Anticancer activity against human HCT-116 cells incubated for 48 hrs by MTT assay; conditions: HCT-116, 48 h
[20] = system: DU-145; assay: Anticancer activity against human DU-145 cells incubated for 48 hrs by MTT assay; conditions: DU-145, 48 h
[21] = system: HL-60; assay: Anticancer activity against human HL-60 cells incubated for 48 hrs by MTT assay; conditions: HL-60, 48 h
[22] = system: A549; assay: Cytotoxicity against human A549 cells incubated for 48 hrs by SpectraMax M5 microplate reader analysis; conditions: A549, 48 h
[23] = Antiproliferative activity against human KB-VIN cells measured after 72 hrs by colorimetric assay; conditions: KBVIN
[24] = system: KB; assay: Antiproliferative activity against human KB cells measured after 72 hrs by colorimetric assay
[25] = system: A549; assay: Antiproliferative activity against human A549 cells measured after 72 hrs by colorimetric assay; conditions: A549, 72 h
[26] = system: NCI-H460; assay: Antiproliferative activity against human NCI-H460 cells incubated for 72 hrs; conditions: NCI-H460, 72 h
[27] = system: MSTO-211H; assay: Antiproliferative activity against human MSTO-211H cells incubated for 72 hrs
[28] = system: A-431; assay: Antiproliferative activity against human A-431 cells incubated for 72 hrs; conditions: A-431, 72 h
[29] = system: HeLa; assay: Antiproliferative activity against human HeLa cells incubated for 72 hrs
[30] = system: NSCLC; assay: Cytotoxicity against human NSCLC cells
[31] = Anticancer activity against human SPCA1 cells incubated for 72 hrs by MTT assay; conditions: SPCA1, 72 h
[32] = system: SK-OV-3; assay: Anticancer activity against human SK-OV-3 cells incubated for 72 hrs by MTT assay; conditions: SK-OV-3, 72 h
[33] = system: SW 1116; assay: Anticancer activity against human SW 1116 cells incubated for 72 hrs by MTT assay; conditions: SW 1116, 72 h
[34] = system: U-251; assay: Anticancer activity against human U-251 cells incubated for 72 hrs by MTT assay; conditions: U-251, 72 h
[35] = system: K562; assay: Anticancer activity against human K562 cells incubated for 72 hrs by MTT assay; conditions: K562, 72 h
[36] = system: NCI-H520; assay: Cytotoxicity against human NCI-H520 cells incubated for 48 hrs by MTT assay; conditions: NCI-H520, 48 h
[37] = system: A549; assay: Cytotoxicity against human A549 cells incubated for 48 hrs by MTT assay; conditions: A549, 48 h
[38] = Cytotoxicity against human NCI-H196 cells incubated for 48 hrs by MTT assay; conditions: NCI-H196, 48 h
[39] = system: NCI-H1299; assay: Cytotoxicity against human NCI-H1299 cells incubated for 48 hrs by MTT assay; conditions: NCI-H1299, 48 h
[40] = system: SBC-5; assay: Cytotoxicity against human SBC-5 cells incubated for 48 hrs by MTT assay; conditions: SBC-5, 48 h
[41] = system: SBC-3; assay: Cytotoxicity against human SBC-3 cells incubated for 48 hrs by MTT assay; conditions: SBC-3, 48 h

Compound CC[C@@](O)(C(=O)NCCN1CCOCC1)c1cc2n(c(=O)c1CO)Cc1c-2nc2ccccc2c1-c1ccccc1 has a pIC50 [1] of 7.00 and a pIC50 [2] of 7.00.

For CC[C@@]1(O)C(=O)OCc2c1cc1n(c2=O)Cc2c-1nc1ccccc1c2CN1CCN(C(=S)Nc2cccc3ccccc23)CC1, the pIC50 [3] was 7.05, the pIC50 [4] was 6.56 and the pIC50 [5] was 6.23. The pIC50 [6] was 7.23, the pIC50 [7] was 6.10 and the pIC50 [8] was 6.56.

CCc1c2c(nc3ccc(OC)cc13)-c1cc([C@@](O)(CC)C(=O)NCCCN3CCOCC3)c(CO)c(=O)n1C2 showed a pIC50 [1] of 7.70 and a pIC50 [2] of 7.70.

With CC[C@@]1(O)C(=O)OCc2c1cc1n(c2=O)Cc2cc3c(/C=C(\C)C(=O)OC)c(O)ccc3nc2-1 the pIC50 [9] was 6.58, the pIC50 [10] was 6.14 and the pIC50 [11] was 6.75. The pIC50 [12] was 7.52 and the pIC50 [13] was 7.52.

Compound CC[C@@]1(O)C(=O)OCc2c1cc1n(c2=O)Cc2cc3cc(OCC(=O)OC(C)(C)C)ccc3nc2-1 has a pIC50 [14] of 7.15, a pIC50 [15] of 7.22 and a pIC50 [16] of 6.80. The pIC50 [17] was 6.34, the pIC50 [18] was 7.40 and the pIC50 [19] was 7.15. For the same compound, the pIC50 [20] was 7.22 and the pIC50 [21] was 7.40.

In the case of CC[C@@]1(O)C(=O)OCc2c1cc1n(c2=O)Cc2cc3c(CN(C)C)c(O)ccc3nc2-1 [TOPOTECAN HYDROCHLORIDE], the pIC50 [4] was 6.29.

CC[C@@]1(OC(=O)CCC(=O)O[C@@H]2O[C@@H](C)[C@H](OC(C)=O)[C@@H](OC(C)=O)[C@H]2OC(C)=O)C(=O)OCc2c1cc1n(c2=O)Cc2cc3cc4c(cc3nc2-1)OCO4 gave a pIC50 [22] of 7.08.

Work on CC[C@]1(OC(=O)CN/C(Cc2ccc(OC)cc2)=N\S(=O)(=O)c2ccc(C)cc2)C(=O)OCc2c1cc1n(c2=O)Cc2cc3ccccc3nc2-1 yielded a pIC50 [23] of 7.59, a pIC50 [24] of 6.85 and a pIC50 [25] of 7.50.

With CCc1c2c(nc3ccc(OC(=O)N4CCC(N5CCCCC5)CC4)cc13)-c1cc3c(c(=O)n1C2)COC(=O)[C@]3(O)CC [IRINOTECAN] the pIC50 [22] was 5.04.

CC[C@@]1(O)C(=O)OCc2c1cc1n(c2=O)Cc2c-1nc1ccccc1c2CS gave a pIC50 [26] of 7.57, a pIC50 ([27]; Homo sapiens, MSTO-211H, 72 h) of 8.73 and a pIC50 ([27]; msto-211h) of 8.74. The pIC50 [28] was 6.96 and the pIC50 [29] was 8.10.

CC[C@@]1(O)C(=O)OCc2c1cc1n(c2=O)Cc2cc3cc4c(cc3nc2-1)OCO4 showed a pEC50 [30] of 9.00 and a pIC50 [22] of 7.08.

With CCc1c2c(nc3ccc(OC(=O)NC(CC(C)C)C(=O)O)cc13)-c1cc3c(c(=O)n1C2)COC(=O)[C@]3(O)CC (stereo partly drawn) the pIC50 [31] was 6.41, the pIC50 [32] was 9.00 and the pIC50 [33] was 7.04. The pIC50 [34] was 5.77 and the pIC50 [35] was 5.79.

Compound CC[C@@]1(O)C(=O)OCc2c1cc1n(c2=O)Cc2c-1nc1ccccc1c2CSSCc1c2c(nc3ccccc13)-c1cc3c(c(=O)n1C2)COC(=O)[C@]3(O)CC has a pIC50 [26] of 8.22, a pIC50 ([27]; Homo sapiens, MSTO-211H, 72 h) of 8.66 and a pIC50 ([27]; msto-211h) of 8.70. The pIC50 [28] was 7.68 and the pIC50 [29] was 8.05.

With CCc1c2c(nc3ccc(OCc4cn(C(COC(CO)CO)COC(CO)CO)nn4)cc13)-c1cc3c(c(=O)n1C2)COC(=O)[C@@]3(O)CC the pIC50 [36] was 5.82, the pIC50 [37] was 4.64 and the pIC50 [38] was 3.29. For the same compound, the pIC50 [39] was 3.00, the pIC50 [40] was 5.32 and the pIC50 [41] was 5.77.

CC[C@@](O)(C(=O)NCCCN1CCOCC1)c1cc2n(c(=O)c1CO)Cc1c-2nc2ccccc2c1-c1ccccc1 showed a pIC50 [1] of 8.00 and a pIC50 [2] of 8.00.

CCc1c2c(nc3ccccc13)-c1cc3c(c(=O)n1C2)COC(=O)[C@]3(CC)OC(=O)CN/C(Cc1ccc(OC)cc1)=N\S(=O)(=O)c1ccc(C)cc1 showed a pIC50 [23] of 7.59, a pIC50 [24] of 6.85 and a pIC50 [25] of 7.50.

CC[C@@]1(O)C(=O)OCc2c1cc1n(c2=O)Cc2cc3ccccc3nc2-1 [CAMPTOTHECIN] showed a pIC50 [18] of 7.00.
